Test results reported in patent publication US20170008888A1 (KYORIN PHARMACEUTICAL CO., LTD., priority 2014, published 2017).
Read-outs that look alike come from different tables or passages of the source. One block for each compound: values may come before it.

Key:
[1] = tested on: Asthmatic lung fibroblasts; test: TGF-β-induced fibrotic response (α-SMA expression) in asthmatic lung fibroblasts; type: cell-based; conditions: Homo sapiens, Fibroblast; 2 ng/ml TGF-β1, 48 h; Western blot; read-out: Inhibition of α-SMA expression, EC50 (μM), Asthmatic lung fibroblasts
Experimental: Nontransformed, human fetal lung fibroblasts (HFL-1) were obtained from ATCC (Manassas, Va.) and maintained in F12K media containing 10% (v/v) charcoal-dextran treated, heat inactivated FBS (Omega Scientific, Tarzana, Calif.). Primary lung fibroblasts isolated from a patient diagnosed with asthma were obtained from Lonza (Allendale, N.J.) and maintained in FGM-2 fibroblast growth medium (Lonza). Cells were seeded at a density to provide 50-60% confluence after an overnight incubation at 37° C. in a humidified atmosphere at 5% CO2. […] Protein content was determined using the Bio-Rad Dc Protein kit (Bio-Rad Laboratories, Hercules, Calif.), and normalized prior to adding an equal volume of 2× Laemmli sample buffer (Sigma). Proteins in the whole cell lysates were resolved via SDS-PAGE gel electrophoresis, and α-SMA was detected via Western blot analysis using a rabbit anti-human α-SMA polyclonal antibody (Abcam, Cambridge, Mass.). α-SMA signal was normalized to the signal of β-actin as detected using mouse anti-human […] antibody (Cell Signaling Technology). DyLight 680 and 800 conjugated secondary antibodies were used and the infrared signals were detected using the Odyssey Imaging System (LI-COR Biotechnology, Lincoln, Nebr.).

MV-4-11 cells = test: MV-4-11 proliferation EC50 assay (CellTiter-Glo); type: cell-based; conditions: Homo sapiens, MV4-11, 48 h, read-out: MV-4-11 proliferation EC50, ave. ± S.D.
Experimental: Human biphenotypic B myelomonocytic leukemia MV-4-11 cells (ATCC, Manassas, Va.) were treated with test compounds at 2e5 cells/ml in IMDM medium containing 10% (v/v) FBS (Life Technologies, Grand Island, N.Y.) and 1×Pen/Strep Amphotericin B (Lonza, Allendale, N.J.). Compounds were tested at 25 μM down by ⅓ in a 9 point serial dilution series. Cells were incubated for 48 h at 37° C. in a humidified atmosphere at 5% CO2. MV-4-11 cell proliferation was then indirectly determined via cellular ATP content using the CellTiter-Glo® Luminescent Cell Viability Assay (Promega, Madison, Wis.) as per the manufacturer's instructions. Briefly, experimental plates were equilibrated at room temperature for 30 minutes. An equal volume of CellTiter-Glo® reagent was added to each well and incubated for 15 minutes at room temperature. Luminescent signal was read using the Wallac 1420 Victor^2 multilabel microplate reader (Perkin Elmer, Waltham, Mass.). EC50 values were determined using GraphPad Prism software v5.04.

[2] = tested on: primary human keratinocytes; test: IL-17A-stimulated cytokine response by primary human keratinocytes; type: cell-based; conditions: Keratinocyte, 200 ng/ml IL-17A, 48 h
Experimental: Primary human keratinocytes were obtained from Life Technologies (Grand Island, N.Y.) and maintained in growth supplemented Defined Keratinocyte-SFM Medium (Life Technologies). Cells were seeded at 2.5e4 cells/ml onto collagen-coated plates and incubated at 37° C. in a humidified atmosphere at 5% CO2 until the cells reached confluence. Cells were pre-treated with test compounds (10 μM down by ⅕ in a 4-point serial dilution series) for 1 h at 37° C. in a humidified atmosphere at 5% CO2. DMSO at a final concentration of 0.1% served as the non-inhibited control. Cells were then stimulated with 200 ng/ml human recombinant IL-17A (eBioscience, San Diego, Calif.) for 48 h. Supernatant was collected and analyzed for cytokine concentrations using the Human Inflammatory Magnetic 5-Plex Panel from Life Technologies according to the manufacturer's instructions. Magnetic beads were measured on the Bio-Plex MAGPIX multiplex reader instrument using the accompanying xPONENT 4.2 acquisition software (Bio-Rad Laboratories, Hercules, Calif.). Data were analyzed via the Bio-Plex Manager software v6.1 (Bio-Rad Laboratories).

TAF1 = biological target: T1, TAF1 (Homo sapiens, UniProt P21675); test: Bromodomain binding assay: TAF1
T1 construct: made in house; host or cells: E. coli host derived from the BL21 strain (T7 phage lysate)
T1 sequence (P21675 1519-1628 limits assumed): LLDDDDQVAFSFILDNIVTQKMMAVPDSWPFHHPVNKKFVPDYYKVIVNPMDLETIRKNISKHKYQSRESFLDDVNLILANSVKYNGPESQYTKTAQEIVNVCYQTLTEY
Experimental: (§1) T7 phage strains displaying bromodomains were grown in parallel in 24-well blocks in an E. coli host derived from the BL21 strain. E. coli were grown to log-phase and infected with T7 phage from a frozen stock (multiplicity of infection=0.4) and incubated with shaking at 32° C. until lysis (90-150 minutes). The lysates were centrifuged (5,000×g) and filtered (0.2 μm) to remove cell debris. […] The liganded beads were blocked with excess biotin and washed with blocking buffer (SeaBlock (Pierce), 1% BSA, 0.05 Tween 20, 1 mM DTT) to remove unbound ligand and to reduce non-specific phage binding. […] Test compounds (T62 and 46) were prepared as 1000× stocks in 100% DMSO and subsequently diluted 1:10 in monoethylene glycol (MEG) to create stocks at 100× the screening concentration (resulting stock solution is 10% DMSO/90% MEG). The compounds were then diluted directly into the assays such that the final concentration of DMSO and MEG were 0.1% and 0.9%, respectively. All reactions were performed in polystyrene 96-well plates in a final volume of 0.135 ml. […] The bromodomain concentration in the eluates was measured by qPCR. Compounds were assayed for binding activity against a panel of 40 bromodomain-containing proteins.

BRD7 = biological target: T2, BRD7 (Homo sapiens, UniProt Q9NPI1); test: Bromodomain binding assay: BRD7
T2 construct: T7 phage strains displaying bromodomains were grown in parallel; made in house; host or cells: E. coli host derived from BL21, infected with T7 phage
T2 sequence (Q9NPI1 131-235 limits assumed, species assumed): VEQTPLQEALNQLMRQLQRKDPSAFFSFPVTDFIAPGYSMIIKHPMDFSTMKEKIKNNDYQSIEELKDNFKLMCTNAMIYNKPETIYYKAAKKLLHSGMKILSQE
Experimental: as §1

BAZ2A = biological target: T3, BAZ2A (Homo sapiens, UniProt Q9UIF9); test: Bromodomain binding assay: BAZ2A
T3 construct: T7 phage strains displaying bromodomains were grown in parallel; made in house; host or cells: E. coli host derived from BL21, infected with T7 phage
T3 sequence (Q9UIF9 1793-1897 limits assumed, species assumed): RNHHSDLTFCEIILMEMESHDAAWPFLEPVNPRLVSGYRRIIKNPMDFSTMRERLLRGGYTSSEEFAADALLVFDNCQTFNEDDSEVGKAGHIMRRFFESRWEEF
Experimental: as §1

- EC50 (MV-4-11 cells): 700 ± 50 nM
SMILES: CCOc1cc(C(=O)N2CCC(N3CCN(C)CC3)CC2)ccc1Nc1cc2c(cn1)N(C)C(=O)c1ccccc1N2C [Compound 61]
- EC50 [1]: 3.69 µM

- EC50 ([2]; read-out: Inhibition EC50 (μM), GM-CSF): 2.18 µM
- EC50 ([2]; read-out: Inhibition EC50 (μM), IL-1β): 0.5 µM
- EC50 ([2]; read-out: Inhibition EC50 (μM), IL-6): 0.35 µM
- EC50 ([2]; read-out: Inhibition EC50 (μM), IL-8): 0.46 µM
- EC50 ([2]; read-out: Inhibition EC50 (μM), TNF-α): 1 µM
SMILES: CCOc1cc(C(=O)N2CC[C@@H](N(C)C)C2)ccc1Nc1cc2c(cn1)N(C)C(=O)c1ccccc1N2C [Compound 115]
- EC50 [1]: 1.37 µM

- Kd (TAF1; read-out: Kd (nM) TAF1): 12000 nM
- Kd (TAF1; read-out: Kd for binding to TAF1): > 20000 nM
- Kd (BRD7): > 20000 nM
- Kd (BAZ2A): > 20000 nM
SMILES: CCOc1cc(C(=O)N[C@H]2CC[C@H](O)CC2)ccc1Nc1cc2c(cn1)N(C)C(=O)c1ccccc1N2C [Compound T62]

- Kd (BRD7): > 20000 nM
- Kd (BAZ2A): > 20000 nM
SMILES: CCOc1cc(C(=O)N2CCC(N3CCCC3)CC2)ccc1Nc1cc2c(cn1)N(C)C(=O)c1ccccc1N2C [Compound 46, 3-(2-Ethoxy-4-(4-(pyrrolidin-1-yl)piperidine-1-carbonyl)phenylamino)-5,11-dimethyl-5H-benzo[e]pyrido[3,4-b][1,4]diazepin-10(11H)-one]
